pIC50: −log10 of the molar value.

From patent publication US11306081B2, “Phenylacetamides as inhibitors of rock” (BRISTOL-MYERS SQUIBB COMPANY, priority 2017, dated 2022) come the findings set out here.

Chain of ROCK2 (O75116 whole entry, species assumed): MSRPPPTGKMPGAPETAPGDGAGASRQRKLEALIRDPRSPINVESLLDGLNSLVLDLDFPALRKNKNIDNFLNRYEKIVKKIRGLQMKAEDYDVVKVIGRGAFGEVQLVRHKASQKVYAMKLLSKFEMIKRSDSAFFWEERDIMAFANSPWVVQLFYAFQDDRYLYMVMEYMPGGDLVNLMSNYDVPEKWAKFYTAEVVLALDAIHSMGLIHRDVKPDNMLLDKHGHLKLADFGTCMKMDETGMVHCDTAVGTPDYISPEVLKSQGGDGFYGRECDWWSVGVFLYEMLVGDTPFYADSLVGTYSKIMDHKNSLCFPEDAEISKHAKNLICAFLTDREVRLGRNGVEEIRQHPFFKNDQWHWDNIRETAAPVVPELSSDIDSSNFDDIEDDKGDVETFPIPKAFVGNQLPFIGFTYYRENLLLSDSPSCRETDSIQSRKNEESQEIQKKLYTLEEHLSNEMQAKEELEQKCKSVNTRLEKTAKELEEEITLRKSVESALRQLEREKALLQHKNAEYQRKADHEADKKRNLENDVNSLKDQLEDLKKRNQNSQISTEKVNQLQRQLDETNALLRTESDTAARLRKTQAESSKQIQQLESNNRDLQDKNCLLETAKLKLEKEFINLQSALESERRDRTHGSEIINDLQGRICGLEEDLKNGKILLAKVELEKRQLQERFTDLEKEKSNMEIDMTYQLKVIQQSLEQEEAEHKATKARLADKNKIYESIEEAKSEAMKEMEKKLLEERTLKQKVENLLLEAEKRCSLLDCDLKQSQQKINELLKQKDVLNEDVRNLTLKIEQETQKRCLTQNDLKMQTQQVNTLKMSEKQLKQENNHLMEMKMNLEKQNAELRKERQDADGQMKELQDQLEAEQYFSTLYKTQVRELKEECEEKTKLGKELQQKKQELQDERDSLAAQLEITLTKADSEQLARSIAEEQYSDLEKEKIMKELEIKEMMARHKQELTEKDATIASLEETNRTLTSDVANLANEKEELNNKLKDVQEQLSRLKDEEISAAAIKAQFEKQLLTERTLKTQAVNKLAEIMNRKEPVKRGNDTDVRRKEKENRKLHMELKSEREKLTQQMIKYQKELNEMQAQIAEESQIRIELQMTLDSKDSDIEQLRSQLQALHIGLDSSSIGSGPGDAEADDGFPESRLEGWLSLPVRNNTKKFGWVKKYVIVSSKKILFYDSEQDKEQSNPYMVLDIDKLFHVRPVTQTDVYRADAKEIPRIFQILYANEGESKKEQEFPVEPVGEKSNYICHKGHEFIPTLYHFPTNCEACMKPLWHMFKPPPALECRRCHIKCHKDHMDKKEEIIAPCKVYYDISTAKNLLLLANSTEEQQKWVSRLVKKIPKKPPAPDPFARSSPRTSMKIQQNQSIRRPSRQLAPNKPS

The experiment has as its target ROCK2 (Homo sapiens (Human), UniProt O75116). Kind of experiment: ROCK assay (LABCHIP 3000 peptide phosphorylation assay). The settings on record: 5 μM ATP, 1.5 μM peptide substrate, dose-response. The class given is biochemical. The method, then: The effectiveness of compounds of the present invention as ROCK inhibitors can be determined in a 30 μL assay containing 20 mM HEPES, pH 7.5, 20 mM MgCl2, 0.015% Brij-35, 4 mM DTT, 5 μM ATP and 1.5 μM peptide substrate (FITC-AHA-AKRRRLSSLRA-OH) (SEQ ID No. 1). Compounds were dissolved in DMSO so that the final concentration of DMSO was <2%, and the reaction was initiated with Rho kinase variants. After incubation, the reaction was terminated by the addition of EDTA and the phosphorylated and non-phosphorylated peptides separated using a LABCHIP® 3000 Reader (Caliper Life Sciences). […] Compounds were tested in dose-response format, and the inhibition of kinase activity was calculated at each concentration of compound. The inhibition data were fit using a curve-fitting program to determine the IC50; i.e., the concentration of compound required to inhibit 50% of kinase activity.
A word on the pIC50: it is the IC50 on a negative log10 scale, so that one unit is a factor of ten. A higher pIC50 goes with a small IC50. `COc1ccc2c(c1)CCc1sc(NC(=O)Cc3ccc(Oc4ncccc4C(N)=O)c(F)c3)nc1-2` [Example 001, 2-(2-fluoro-4-(2-((7-methoxy-4,5-dihydronaphtho[1,2-d]thiazol-2-yl)amino)-2-oxoethyl)phenoxy)nicotinamide] gave a pIC50 of 8.00. Under `COc1ccc2sc(NC(=O)Cc3ccc(Oc4ncccc4C(N)=O)cc3)nc2c1` [Example 002, 2-(4-(2-((5-methoxybenzo[d]thiazol-2-yl)amino)-2-oxoethyl)phenoxy) Nicotinamide] stands 7.46; under `CC(C)(O)COc1ccc2sc(NC(=O)Cc3ccc(Oc4ncccc4C(N)=O)c(F)c3)nc2c1` [Example 003, 2-(2-fluoro-4-(2-((5-(2-hydroxy-2-methylpropoxy)benzo[d]thiazol-2-yl)amino)-2-oxoethyl)phenoxy)nicotinamide], 7.70. On to `Cc1nn(C)cc1-c1ccc2sc(NC(=O)Cc3ccc(Oc4ncccc4C(N)=O)c(F)c3)nc2c1` [Example 004, 2-(4-(2-((5-(1,3-dimethyl-1H-pyrazol-4-yl)benzo[d]thiazol-2-yl)amino)-2-oxoethyl)-2-fluorophenoxy)nicotinamide], for which the pIC50 was 8.52. Compared with the last compound, the pIC50 is 0.82 log units higher. The same measure for `Cc1n[nH]c(C)c1-c1ccc2sc(NC(=O)Cc3ccc(Oc4ncccc4C(N)=O)c(F)c3)nc2c1` [Example 005, 2-(4-(2-((5-(3,5-dimethyl-1H-pyrazol-4-yl)benzo[d]thiazol-2-yl)amino)-2-oxoethyl)-2-fluorophenoxy)nic-otinamide]: 8.00; for `Cn1nc(C(F)(F)F)cc1-c1ccc2sc(NC(=O)Cc3ccc(Oc4ncccc4C(N)=O)c(F)c3)nc2c1` [Example 006, 2-(2-fluoro-4-(2-((5-(1-methyl-3-(trifluoromethyl)-1H-pyrazol-5-yl)benzo[d]thiazol-2-yl)amino)-2-oxoethyl)phenoxy) nicotinamide]: 7.74; for `NC(=O)c1cccnc1Oc1ccc(CC(=O)Nc2nc3ccccc3n2CC2CC2)cc1Cl` [Example 007, 2-(2-chloro-4-(2-((1-(cyclopropylmethyl)-1H-benzo[d]imidazol-2-yl)amino)-2-oxoethyl)phenoxy)nicotinamide]: 7.85.

For the compound `COc1ccn2nc(NC(=O)Cc3ccc(Oc4ncccc4C(N)=O)c(F)c3)nc2c1` [Example 008, 2-(2-fluoro-4-(2-((7-methoxy-[1,2,4]triazolo[1,5-a]pyridin-2-yl)amino)-2-oxoethyl)phenoxy)nicotinamide], the pIC50 is 8.15. For the compound `NC(=O)c1cccnc1Oc1ccc(CC(=O)Nc2cn3cc(Br)ccc3n2)cc1Cl` [Example 009, 2-(4-(2-((6-bromoimidazo[1,2-a]pyridin-2-yl)amino)-2-oxoethyl)-2-chlorophenoxy)nicotinamide], the pIC50 is 7.46. Under `Cn1nc(NC(=O)Cc2ccc(Oc3ncccc3C(N)=O)c(Cl)c2)c2cccnc21` [Example 010, 2-(2-chloro-4-(2-((1-methyl-1H-pyrazolo[3,4-b]pyridin-3-yl)amino)-2-oxoethyl)phenoxy)nicotinamide] stands 6.80; under `NC(=O)c1cccnc1Oc1ccc(CC(=O)Nc2nnc(-c3cnccn3)s2)cc1F` [Example 011, 2-(2-fluoro-4-(2-oxo-2-((5-(pyrazin-2-yl)-1,3,4-thiadiazol-2yl)amino)ethyl)phe-noxy) nicotinamide], 6.82; under `Cc1nc(NC(=O)Cc2ccc(Oc3ncccc3C(N)=O)c(F)c2)sc1-c1ccccn1` [Example 012, 2-(2-fluoro-4-(2-((4-methyl-5-(pyridin-2-yl)thiazol-2-yl)amino)-2-oxoethyl)phenoxy)nic-otinamide], 7.42. Compound `Cc1sc(NC(=O)Cc2ccc(Oc3ncccc3C(N)=O)c(F)c2)nc1-c1cccc(F)n1` [Example 013, 2-(2-fluoro-4-(2-((4-(6-fluoropyridin-2-yl)-5-methylthiazol-2-yl)amino)-2-oxoethyl)phenoxy)nicotinamide] gave a pIC50 of 7.68. In turn, `Cc1sc(NC(=O)Cc2ccc(Oc3ncccc3C(N)=O)c(F)c2)nc1-c1ccc(F)cn1` [Example 014, 2-(2-fluoro-4-(2-((4-(5-fluoropyridin-2-yl)-5-methylthiazol-2-yl)amino)-2-oxoethyl)phenoxy)nic-otinamide] showed a pIC50 of 7.02. In turn, `NC(=O)c1cccnc1Oc1ccc(CC(=O)Nc2nc3ccccc3s2)cc1F` [Example 015, 2-(4-(2-(benzo[d]thiazol-2-ylamino)-2-oxoethyl)-2-fluorophenoxy)nicotinamide] had a pIC50 of 7.51. Compound `Cc1sc(NC(=O)Cc2ccc(Oc3ncccc3C(N)=O)cc2)nc1-c1ccccc1` [Example 016, 2-(4-(2-((5-methyl-4-phenylthiazol-2-yl)amino)-2-oxoethyl)phenoxy) nicotinamide] had a pIC50 of 7.06. The same measure for `Cn1ccc(-c2csc(NC(=O)Cc3ccc(Oc4ncccc4C(N)=O)c(F)c3)n2)cc1=O` [Example 017, 2-(2-fluoro-4-(2-((4-(1-methyl-2-oxo-1,2-dihydropyridin-4-yl)thiazol-2-yl)amino)-2-oxoethyl)phenoxy)nicotinamide]: 6.39; for `NC(=O)c1cccnc1Oc1ccc(CC(=O)Nc2nc(-c3cc[nH]c(=O)c3)cs2)cc1F` [Example 018, 2-(2-fluoro-4-(2-oxo-2-((4-(2-oxo-1,2-dihydropyridin-4-yl)thiazol-2-yl)amino)ethyl)phenoxy)nicotinamide]: 6.61. Under `COC(=O)Nc1cc(-c2nc(NC(=O)Cc3ccc(Oc4ncccc4C(N)=O)c(F)c3)sc2C)ccn1` [Example 019, methyl (4-(2-(2-(4-((3-carbamoylpyridin-2-yl)oxy)-3-fluorophenyl)acetamido)-5-methylthiazol-4-yl)pyridin-2-yl)carbamate] stands 7.31. Regarding `Cc1sc(NC(=O)Cc2ccc(Oc3ncccc3C(N)=O)c(F)c2)nc1-c1ccc(=O)n(C)c1` [Example 020, 2-(2-fluoro-4-(2-((5-methyl-4-(1-methyl-6-oxo-1,6-dihydropyridin-3-yl)thiazol-2-yl)amino)-2-oxoethyl)phenoxy)nicotinamide], the pIC50 was 6.97. Under `Cc1sc(NC(=O)Cc2ccc(Oc3ncccc3C(N)=O)c(F)c2)nc1-c1ccc(=O)n(C(F)F)c1` [Example 021, 2-(4-(2-((4-(1-(difluoromethyl)-6-oxo-1,6-dihydropyridin-3-yl)-5-methylthiazol-2-yl)amino)-2-oxoethyl)-2-fluorophenoxy)nicotinamide] stands 7.28; under `Cc1cccc(-c2nc(NC(=O)Cc3ccc(Oc4ncccc4C(N)=O)c(Cl)c3)sc2C)n1` [Example 022, 2-(2-chloro-4-(2-((5-methyl-4-(6-methylpyridin-2-yl)thiazol-2-yl)amino)-2-oxoethyl)phenoxy)nicotinamide], 7.39. In the case of `NC(=O)c1cccnc1Oc1ccc(CC(=O)Nc2nc(C3CCC3)c(-c3ccccn3)s2)cc1Cl` [Example 023, 2-(2-chloro-4-(2-((4-cyclobutyl-5-(pyridin-2-yl)thiazol-2-yl)amino)-2-oxoethyl)phenoxy)nicotinamide], the pIC50 was 8.40. Under `NC(=O)c1cccnc1Oc1ccc(CC(=O)Nc2nc3cc(-c4cc[nH]c(=O)c4)ccc3s2)cc1F` [Example 024, 2-(2-fluoro-4-(2-oxo-2-((5-(2-oxo-1,2-dihydropyridin-4-yl)benzo[d]thiazol-2-yl)amino)ethyl)phe-noxy)nicotinamide] stands 8.10.
